Assay results reported in patent US11098055B2, “Ester ACC inhibitors and uses thereof” (Gilead Apollo, LLC, priority 2015, dated 2021).
In brackets after ≈: the same amount, converted by molar mass. Read-outs that look alike come from different tables or passages of the source.

Legend:
[1] = test system: Phytophthora capsici (Pc); test: Growth inhibition assay of fungal pathogens; format: cell-based; details: 48 h, read-out: Concentration at 90% Inhibition Pc
Experimental: (§1) Compounds of the present invention were evaluated in a growth inhibition assay to determine the ability to control the growth of fungal pathogens, such as Botrtyis cinerea (Bc), Collectotrichum graminicola (Cg), Diplodia maydis (Dm), Fusarium moniliforme (Fm), Fusarium virguhforme (Fv), Phytophthora capsici (Pc), Rhizoctonia solani (Rs), and Septoria tritici (St). Compounds to be tested were dissolved in DMSO at 2.5 mg/ml to produce compound stock solutions (“stocks”). Stocks were diluted with DMSO by a five-fold dilution in a 96-well stock plate, and two sets of final concentrations of 50, 10, and 2 ppm or 2, 0.4, and 0.08 ppm were obtained in vitro. A set of positive controls was also prepared, with various concentrations of Soraphen (2, 0.4, and 0.08 ppm), Metalaxyl (1.1, 0.22, and 0.04 ppm), and Metconazole (2, 0.4, and 0.08 ppm or 0.2, 0.04, and 0.008 ppm) after the five-fold dilutions. Negative controls on each plate included 2% DMSO, water, and a blank (media+2% DMSO). Fungal spores were isolated from previously sub-cultured plates of Botrtyis cinerea (Bc), Collectotrichum graminicola (Cg), Diplodia maydis (Dm), Fusarium moniliforme (Fm), Fusarium virguliforme (Fv), Phytophthora capsici (Pc), and Septoria tritici (St). The isolated spores were diluted to individual concentrations with a 17% V8 liquid media. For Rhizoctonia solani (Rs) and Pythium irregulare, 1.5 mm mycelial plugs were used in place of spores and ¼ Potato Dextrose Broth (PDB) was used for dilution. The spore concentrations and plug sizes were based on growth curves generated at 48 hours for each pathogen. In a second 96-well plate, the spores or mycelial plugs, media, diluted compound solutions, and controls were combined. Once the compound was added, a true final concentration of compound in each well was measured by an OD600 reading, which adjusted for any compound precipitation that might have occurred in the well. Plate readings were repeated at both 24 and 48 hours. The blank negative control was used as a background subtraction. Additional visual ratings were performed at both 24 and 48 hours for checking on precipitation and confirming efficacy. Visual and OD600 ratings of the compounds at 48 hours were compared to the 2% DMSO negative control, and the percent of pathogen growth inhibition was determined based on those values.

[2] = test system: Rhizoctonia solani (Rs); test: Growth inhibition assay of fungal pathogens; format: cell-based; details: 48 h, read-out: Concentration at 90% Inhibition Rs
Experimental: as §1

[3] = test system: Fusarium virguliforme (Fv); test: Growth inhibition assay of fungal pathogens; format: cell-based; details: 48 h, read-out: Concentration at 90% Inhibition Fv
Experimental: as §1

[4] = test system: Collectotrichum graminicola (Cg); test: Growth inhibition assay of fungal pathogens; format: cell-based; details: 48 h, read-out: Concentration at 90% Inhibition Cg
Experimental: as §1

[5] = test system: Fusarium moniliforme (Fm); test: Growth inhibition assay of fungal pathogens; format: cell-based; details: Fusarium verticillioides, 48 h, read-out: Concentration at 90% Inhibition Fm
Experimental: as §1

[6] = test system: Diplodia maydis (Dm); test: Growth inhibition assay of fungal pathogens; format: cell-based; details: Stenocarpella maydis, 48 h, read-out: Concentration at 90% Inhibition Dm
Experimental: as §1

[7] = test system: Botrtyis cinerea (Bc); test: Growth inhibition assay of fungal pathogens; format: cell-based; details: 48 h, read-out: Concentration at 90% Inhibition Bc
Experimental: as §1

[8] = test system: Septoria tritici (St); test: Growth inhibition assay of fungal pathogens; format: cell-based; details: Zymoseptoria tritici, 48 h, read-out: Concentration at 90% Inhibition St
Experimental: as §1

[9] = test system: C. krusei ATCC 6258; test: Anti-Fungal (Candida) Activity Assay, broth microtiter MIC; format: cell-based, Candida krusei; details: Pichia kudriavzevii, ATCC6258, 48 h, 3 replicates, MIC read at 48 h
Experimental: Compounds of the present invention were evaluated in an Anti-Fungal Activity Assay. An exemplary procedure for the assay, which measures the susceptibility of various Candida species to anti-fungal compounds, follows. Compounds to be tested (including fluconazole and amphotericin B) were dissolved in DMSO to obtain a solution having a concentration of 1 mg/mL. These stock solutions were sterile filtered using a 0.22 um nylon syringe filter, then diluted in sterile water to achieve a final concentration of 128 μg/mL.
All species were grown from frozen stock by directly plating on to freshly prepared Sabouraud Dextrose agar (BD, Difco) and incubated overnight in ambient air at 35° C. for 24 h. A direct suspension was prepared in RPMI 1640+MOPS (Lonza, Biowhittaker) by taking individual colonies from the overnight cultures using sterile swabs soaked in sterile saline. The concentration of the suspension was determined using pre-determined standard curves. These suspensions were then diluted down to 5×10^3 CFU/mL to achieve a final concentration of 2.5×10^3 CFU/mL once added to the microtiter plate as per CLSI guidelines (M27-A3, Vol. 28 No. 14).
Broth microtiter MIC challenge plates were prepared following CLSI guidelines (M27-A3, Vol. 28 No. 14). The original CLSI guidelines focused on reading Candida MICs after 48 h of incubation. As reading after only 24 h offers a clear advantage of patient care, QC limits are being established for all drugs at 24 h. That being said there are no known interpretive breakpoints for amphotericin B at 24 h and the current fluconazole interpretive breakpoints are based on a 48 h reading. The MIC for the test compounds were recorded at 48 h. All MIC determinations were achieved by visually comparing the growth found in the antibiotic challenged wells to that of the growth control.

Structure (SMILES)	IC90 ([1]; Table 4a) [µg/mL]	IC90 ([1]; Table 4b) [µg/mL]	IC90 ([2]; Table 4a) [µg/mL]	IC90 ([2]; Table 4b) [µg/mL]	IC90 ([3]; Table 4a) [µg/mL]	IC90 ([3]; Table 4b) [µg/mL]	IC90 ([4]; Table 4a) [µg/mL]	IC90 ([4]; Table 4b) [µg/mL]	IC90 ([5]; Table 4a) [µg/mL]	IC90 ([5]; Table 4b) [µg/mL]	IC90 ([6]; Table 4a) [µg/mL]	IC90 ([6]; Table 4b) [µg/mL]	IC90 ([7]; Table 4a) [µg/mL]	IC90 ([7]; Table 4b) [µg/mL]	IC90 ([8]; Table 4a) [µg/mL]	IC90 ([8]; Table 4b) [µg/mL]	MIC ([9]; Table 3a) [µg/mL]	MIC ([9]; Table 3b (additional results)) [µg/mL]
CCOC(=O)c1sc2c(c1C)c(=O)n(C(C)(C)C(=O)N1CCCCC1)c(=O)n2C[C@H](OC1CCOCC1)c1ccccc1OC [Compound I-2, ethyl (R)-1-(2-(2-methoxyphenyl)-2-((tetrahydro-2H-pyran-4-yl)oxy)ethyl)-5-methyl-3-(2-methyl-1-oxo-1-(piperidin-1-yl)propan-2-yl)-2,4-dioxo-1,2,3,4-tetrahydrothieno[2,3-d]pyrimidine-6-carboxylate]	≥ 50	≥ 50	2 (≈ 3.12 µM)	0.4 (≈ 0.623 µM)	0.4 (≈ 0.623 µM)	0.4 (≈ 0.623 µM)	0.4 (≈ 0.623 µM)	0.4 (≈ 0.623 µM)	0.4 (≈ 0.623 µM)	0.4 (≈ 0.623 µM)	2 (≈ 3.12 µM)	2 (≈ 3.12 µM)	0.4 (≈ 0.623 µM)	0.4 (≈ 0.623 µM)	≥ 50	10 (≈ 15.6 µM)	0.25 to 1 (≈ 0.39 to 1.56 µM)	0.25 to 1 (≈ 0.39 to 1.56 µM)
CCOC(=O)c1sc2c(c1C)c(=O)n(C(C)(C)C(=O)N1CCCC1)c(=O)n2C[C@H](OC1CCOCC1)c1ccccc1OC [Compound I-3, ethyl (R)-1-(2-(2-methoxyphenyl)-2-((tetrahydro-2H-pyran-4-yl)oxy)ethyl)-5-methyl-3-(2-methyl-1-oxo-1-(pyrrolidin-1-yl)propan-2-yl)-2,4-dioxo-1,2,3,4-tetrahydrothieno[2,3-d]pyrimidine-6-carboxylate]	≥ 50	≥ 50	0.4 (≈ 0.637 µM)	0.4 (≈ 0.637 µM)	0.4 (≈ 0.637 µM)	0.4 (≈ 0.637 µM)	0.4 (≈ 0.637 µM)	0.4 (≈ 0.637 µM)	0.08 (≈ 0.127 µM)	0.08 (≈ 0.127 µM)	2 (≈ 3.19 µM)	2 (≈ 3.19 µM)	2 (≈ 3.19 µM)	2 (≈ 3.19 µM)	≥ 50	≥ 50	0.25 to 1 (≈ 0.398 to 1.59 µM)	2.1 to 4 (≈ 3.35 to 6.37 µM)
CCNC(=O)C(C)(C)n1c(=O)c2c(C)c(C(=O)OCC)sc2n(C[C@H](OC(C)C)c2ccccc2OC)c1=O [Compound I-4, (R)-ethyl 3-(1-(ethylamino)-2-methyl-1-oxopropan-2-yl)-1-(2-isopropoxy-2-(2-methoxyphenyl)ethyl)-5-methyl-2,4-dioxo-1,2,3,4-tetrahydrothieno[2,3-d]pyrimidine-6-carboxylate]	≥ 50	≥ 50	≥ 50	≥ 50	2 (≈ 3.57 µM)	2 (≈ 3.57 µM)	≥ 50	10 (≈ 17.9 µM)	0.4 (≈ 0.715 µM)	0.4 (≈ 0.715 µM)	≥ 50	10 (≈ 17.9 µM)	2 (≈ 3.57 µM)	2 (≈ 3.57 µM)	≥ 50	≥ 50	2.1 to 4 (≈ 3.75 to 7.15 µM)	2.1 to 4 (≈ 3.75 to 7.15 µM)
CCOC(=O)c1sc2c(c1C)c(=O)n(C(C)(C)C(=O)N1CCOCC1)c(=O)n2C[C@H](OC(C)C)c1ccccc1OC [Compound I-5, (R)-ethyl 1-(2-isopropoxy-2-(2-methoxyphenyl)ethyl)-5-methyl-3-(2-methyl-1-morpholino-1-oxopropan-2-yl)-2,4-dioxo-1,2,3,4-tetrahydrothieno[2,3-d]pyrimidine-6-carboxylate]	≥ 50	≥ 50	≥ 50	≥ 50	≥ 50	10 (≈ 16.6 µM)	≥ 50	10 (≈ 16.6 µM)	0.4 (≈ 0.665 µM)	0.4 (≈ 0.665 µM)	2 (≈ 3.32 µM)	2 (≈ 3.32 µM)	0.4 (≈ 0.665 µM)	0.4 (≈ 0.665 µM)	≥ 50	≥ 50	> 4.1	2.1 to 4 (≈ 3.49 to 6.65 µM)
CCOC(=O)c1sc2c(c1C)c(=O)n(C(C)(C)C(=O)N1CCCCC1)c(=O)n2C[C@H](OC(C)C)c1ccccc1OC [Compound I-6, (R)-ethyl 1-(2-isopropoxy-2-(2-methoxyphenyl)ethyl)-5-methyl-3-(2-methyl-1-oxo-1-(piperidin-1-yl)propan-2-yl)-2,4-dioxo-1,2,3,4-tetrahydrothieno[2,3-d]pyrimidine-6-carboxylate]	≥ 50	≥ 50	0.4 (≈ 0.667 µM)	0.4 (≈ 0.667 µM)	0.4 (≈ 0.667 µM)	0.4 (≈ 0.667 µM)	0.4 (≈ 0.667 µM)	0.4 (≈ 0.667 µM)	0.08 (≈ 0.133 µM)	0.08 (≈ 0.133 µM)	0.4 (≈ 0.667 µM)	0.4 (≈ 0.667 µM)	0.4 (≈ 0.667 µM)	0.4 (≈ 0.667 µM)	10 (≈ 16.7 µM)	2 (≈ 3.33 µM)	2.1 to 4 (≈ 3.5 to 6.67 µM)	2.1 to 4 (≈ 3.5 to 6.67 µM)
